{"source": "patent EP0051852A1", "about": "“Pyrimido(4,5-b)(1,4)thiazines and process for their preparation” (Stiftung Forschungsinstitut Borstel, priority 1980, dated 1982)", "system": "E.coli(mutaflor)", "test": "Bacterial growth kinetics, Coulter Counter (total cell count)", "type": "cell-based", "parameters": "unit not given here", "conditions": "Coulter Counter (Gesamtkeimzahl); 75.0 µmol/l PTZ alone; 37°C, modified Sauton medium", "text": "2,4-Diamino-5-(3',4',5'-trimehoxybenzvl)-pyrimidins (TMP) können auf ihre eigene und in Kombination potenzierte antimikrobielle Wirkung mit Hilfe der Bakterienvermehrungskinetik wie folgt geprüft werden: • Es werden zu Bakterienkulturen (Beispiel E.coli) in der logarithmischen Wachstumsphase die genannten Inhibitoren allein oder in den oben beschriebenen Kombinationen hinzugefügt. Die Veränderung der Zahl der Bakterien als Funktion der Zeit wird mit einem Coulter Counter (Gesamtkeimzahl) bzw. mit Hilfe der Kolonienzählung (Plattentest,Lebendkeimzahl) ermittelt. Die Vermehrungskurven werden bei Abwesenheit und bei Anwesenheit der Hemmstoffe und ihrer oben beschriebenen Kombinationen ermittelt. Die aus ihnen ermittelten Änderungen in den Vermehrungsgeschwindigkeiten sin^dein Maß für die antibakterielle Wirkung.\nTMP wurde 1,5 Stunden später als die anderen Verbindungen der Kultur zugesetzt.", "data": [{"smiles": "Nc1nc(O)c2c(n1)SCC(CO)=N2", "note": "[PTZ, 2-Amino-4-hydroxy-6-hydroxymethyl-7H-pyrimido[4,5b][1,4]thiazin]", "values": [{"measurement": "beobachtete Vermehrungsgeschwindigkeitskonstanten kbeob.", "result": 3.82}]}]}
